According to patent US5324648A, “Substituted isocoumarins as serine protease inhibitors and anti-inflammatory agents” (Georgia Tech Research Corporation, priority 1992, dated 1994):
Where two headings read alike, the source gives them in different places. Each block holds one compound with its values, some of them ahead of it.

How the values were obtained:
[1] = molecular target: T1, porcine pancreatic elastase (PPE) (Sus scrofa, UniProt P00772); assay: Inactivation of porcine pancreatic elastase (PPE); type: biochemical
T1 construct: from tissue; host or cells: porcine pancreas (from the name)
T1 sequence (P00772 27-266): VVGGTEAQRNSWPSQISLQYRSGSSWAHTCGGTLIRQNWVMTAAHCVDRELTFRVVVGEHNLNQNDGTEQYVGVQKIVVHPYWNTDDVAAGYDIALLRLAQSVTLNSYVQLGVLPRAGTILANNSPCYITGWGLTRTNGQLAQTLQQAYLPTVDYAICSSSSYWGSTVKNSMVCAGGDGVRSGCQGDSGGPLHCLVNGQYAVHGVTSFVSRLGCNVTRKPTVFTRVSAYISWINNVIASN

[2] = molecular target: T2, human leukocyte elastase (HLE) (Homo sapiens, UniProt P08246); assay: Inactivation of human leukocyte elastase (HLE); type: biochemical
T2 construct: from tissue; host or cells: human leukocytes (from the name)
T2 sequence (P08246 30-267): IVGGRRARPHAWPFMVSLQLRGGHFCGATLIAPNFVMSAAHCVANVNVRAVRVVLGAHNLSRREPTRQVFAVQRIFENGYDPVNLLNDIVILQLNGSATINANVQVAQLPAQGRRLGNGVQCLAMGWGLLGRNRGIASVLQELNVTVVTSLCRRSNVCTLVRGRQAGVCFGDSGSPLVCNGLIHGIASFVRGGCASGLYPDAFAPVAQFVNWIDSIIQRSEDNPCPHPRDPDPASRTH
Description: Inactivation rates of serine proteases by substituted isocoumarins were measured by the incubation method. An aliquot of inhibitor (25 or 50 μl) in Me2 SO was added to a buffered enzyme solution (0.01-2.3 μM) to initiate the inactivation. Aliquots (50 μl) were withdrawn at various intervals and the residual enzymatic activity was measured. Me2 SO concentration in the reaction mixture was 8-12% (v/v). 0.1 Hepes, 0.01M CaCl2, pH 7.5 buffer was utilized for trypsin and coagulation enzymes. 0.1M Hepes, 0.5M NaCl, pH 7.5 was utilized for other serine proteases. […] Peptide thioesters or peptide nitroanilides with appropriate sequence were used as substrates for various serine proteases. All peptide thioester hydrolysis rates were measured with assay mixtures containing 4,4'-dithiodipyridine (ε324 =19800M^-1 cm^-1 ; Grasetti & Murray, Arch. Biochem. Biophys. 119, pp 41-49 (1967)). Peptide 4-nitroanilide nitroanilide hydrolysis was measured at 410 nm (ε410 =8800M^-1 cm^-1 ; Erlanger et al., Arch. Biochem. Biophys. 95, pp 271-278 (1961)). First order inactivation rate constant (kobs) were obtained from plots of ln (vt /vo) vs time, and the correlation coefficients were greater than 0.98.
^a Inactivation rates were measured at 0.1M Hepes, 0.5 NaCl, pH 7.5,
8-12% Me2 SO and 25° C. by incubation method.
^a Inhibition rates were measured in 0.1M Hepes, 0.05M NaCl, pH 7.5
buffer, 8-9% Me2 SO and at 25° C.
^a Inhibition constants were in 0.1M Hepes, 0.5M NaCl, pH 7.5 buffer,
8-9% Me2 SO and at 25° C.
^a Inhibition rates were measured in 0.1M Hepes, 0.5M NaCl, 2.5%
Me2 SO, pH 7,5 and at 25° C.
^a Inhibition was measured in 0.1M Hepes, 0.5M NaCl, pH 7.5 buffer,
5-10% Me2 SO and at 25° C. Suc--Val--Pro--Phe--NA (0.48 mM)
was used as the substrate for chymotrypsin and cat G.
^a Inhibition rates were measured in 0.1M Hepes, 0.5M NaCl, pH 7.5

[3] = molecular target: chymotrypsin (Bos taurus, UniProt P00766); assay: Inactivation of chymotrypsin; type: biochemical, bovine; settings: read-out: kobs/[I]
[4] = molecular target: T3, cathepsin G (Homo sapiens, UniProt P08311); assay: Inactivation of cathepsin G; type: biochemical; parameters: percentage of inhibition: concentration or dose not given beside the values; settings: for kinact/KI: read-out: kobs/[I]
T3 construct: from tissue; host or cells: human leukocytes
T3 sequence (P08311 21-255): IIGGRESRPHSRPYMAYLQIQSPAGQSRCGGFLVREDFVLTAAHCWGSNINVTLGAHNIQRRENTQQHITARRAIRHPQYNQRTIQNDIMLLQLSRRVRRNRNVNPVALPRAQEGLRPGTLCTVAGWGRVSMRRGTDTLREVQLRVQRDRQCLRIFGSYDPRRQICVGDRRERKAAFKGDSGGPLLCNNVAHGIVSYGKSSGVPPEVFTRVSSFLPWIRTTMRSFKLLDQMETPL

[5] = Table XI, pH 7.5, 25° C, [I] 6.3-600 μM, per line, read-out: kobs/[I]
[6] = Table XI, pH 7.5, 25° C, [I] 1.4-6.6 μM, per line, read-out: kobs/[I]
[7] = Table XVI, pH 7.5, 25° C, [I] 1.7-58 μM
[8] = Table XVI, pH 7.5, 25° C, [I] 0.04-2.0 mM, read-out: kobs/[I]
[9] = Table XVI, pH 7.5, 25° C, [I] 0.07-710 μM, read-out: kobs/[I]
[10] = pH 7.5, Table XII, 2.5% Me2SO, 25° C, [I] 0.7-1.9 μM, read-out: kobs/[I]
[11] = pH 7.5, Table XII, 2.5% Me2SO, 25° C, [I] 8.7-87 μM
[12] = pH 7.5, Table XVI, second order, equimolar inhibitor and enzyme, read-out: kobs/[I]
[13] = Table XVI, pH 7.5, 25° C, [I] 35-710 μM

- kinact/KI [1, 5]: 3200 M⁻¹ s⁻¹
- kinact/KI [2, 6]: 20000 M⁻¹ s⁻¹
SMILES: COc1oc(=O)c2cc(NC(=O)NCC(C)C)ccc2c1Cl

- kinact/KI [1, 5]: 3100 M⁻¹ s⁻¹
- kinact/KI [2, 6]: 66000 M⁻¹ s⁻¹
SMILES: COc1oc(=O)c2cc(NC(=O)CC(CC(=O)O)c3ccccc3)ccc2c1Cl (stereo not shown) [7-(3-phenylglutaryl)amino-4-chloro-3-methoxyisocoumarin]

- kinact/KI [1, 5]: 17 M⁻¹ s⁻¹
- kinact/KI [2, 6]: 12000 M⁻¹ s⁻¹
SMILES: COc1oc(=O)c2cc(NC(=O)N(CCc3ccccc3)Cc3ccccc3)ccc2c1Cl [7-(N-benzyl-N-phenylethylcarbamoyl)amino-4-chloro-3-methoxyisocoumarin]

- kinact/KI [3, 7]: 150 M⁻¹ s⁻¹
- kinact/KI [1, 8]: 30 M⁻¹ s⁻¹
- percentage of inhibition ([4]; Table XVI, after 5 min incubation): 19%
SMILES: CC(C)(C)OC(=O)N[C@H](Cc1ccccc1)C(=O)Nc1ccc2c(Cl)c(OCCBr)oc(=O)c2c1 [7-(N-t-butyloxycarbonyl-D-phenylalanyl)amino-4-chloro-3-(2-bromoethoxy)isocoumarin]

- kinact/KI [3, 7]: 70 M⁻¹ s⁻¹
- kinact/KI [2, 9]: 1480 M⁻¹ s⁻¹
SMILES: CC(C)(C)OC(=O)N[C@H](Cc1ccccc1)C(=O)Nc1ccc2c(Cl)c(OCCCBr)oc(=O)c2c1 [7-(N-t-butyloxycarbonyl-D-phenylalanyl)amino-4-chloro-3-(3-bromopropoxy)isocoumarin]

- kinact/KI [3, 7]: 490 M⁻¹ s⁻¹
- kinact/KI [2, 9]: 1320 M⁻¹ s⁻¹
SMILES: CC(C)(C)OC(=O)N[C@@H](Cc1ccccc1)C(=O)Nc1ccc2c(Cl)c(OCCCBr)oc(=O)c2c1 [7-(N-t-butyloxycarbonyl-L-phenylalanyl)amino-4-chloro-3-(3-bromopropoxy)isocoumarin]

- kinact/KI [2, 10]: 64000 M⁻¹ s⁻¹
- kinact/KI [4, 11]: 17 M⁻¹ s⁻¹
SMILES: CCCOc1oc(=O)c2cc(NC(=O)[C@@H](NC(=O)OC(C)(C)C)C(C)C)ccc2c1Cl [7-(N-t-butyloxycarbonyl-valyl)amino-4-chloro-3-propyloxyisocoumarin]

- kinact/KI [1, 5]: 1500 M⁻¹ s⁻¹
- kinact/KI [2, 6]: 84000 M⁻¹ s⁻¹
SMILES: COc1oc(=O)c2cc(NC(=O)C(NS(=O)(=O)c3ccc(C)cc3)c3ccccc3)ccc2c1Cl (stereo not drawn) [7-(N-tosyl-α-phenylglycyl)amino-4-chloro-3-methoxyisocoumarin]

- kinact/KI [3, 7]: 1960 M⁻¹ s⁻¹
- kinact/KI [2, 12]: > 240000 M⁻¹ s⁻¹
- kinact/KI [4, 13]: 320 M⁻¹ s⁻¹
SMILES: O=C(O)c1cccc(NC(=S)Nc2ccc3c(Cl)c(OCCBr)oc(=O)c3c2)c1 [7-(m-carboxyphenyl)thiocarbamoylamino-4-chloro-3-(2-bromoethoxy)isocoumarin]

- kinact/KI [1, 5]: 2500 M⁻¹ s⁻¹
- kinact/KI [2, 6]: 100000 M⁻¹ s⁻¹
SMILES: COC(=O)Nc1cccc(C(=O)Nc2ccc3c(Cl)c(OC)oc(=O)c3c2)c1 [7-(m-methoxycarbonylaminobenzoyl)amino-4-chloro-3-methoxyisocoumarin]

- kinact/KI [2, 10]: > 210000 M⁻¹ s⁻¹
- kinact/KI [4, 11]: 4 M⁻¹ s⁻¹
SMILES: CCCOc1oc(=O)c2cc(NC(=O)c3cccc([N+](=O)[O-])c3)ccc2c1Cl [7-(m-nitrobenzoyl)amino-4-chloro-3-propyloxyisocoumarin]

- kinact/KI [1, 5]: 7100 M⁻¹ s⁻¹
SMILES: COC(=O)c1ccccc1C(=O)Nc1ccc2c(Cl)c(OC)oc(=O)c2c1 [7-(o-methoxyphthalyl)amino-4-chloro-3-methoxyisocoumarin]

- kinact/KI [1, 5]: 2700 M⁻¹ s⁻¹
- kinact/KI [2, 6]: 52000 M⁻¹ s⁻¹
SMILES: COc1oc(=O)c2cc(NC(=O)c3ccccc3C(=O)O)ccc2c1Cl [7-(o-phthalyl)amino-4-chloro-3-methoxyisocoumarin]

- kinact/KI [3, 7]: 1720 M⁻¹ s⁻¹
- kinact/KI [2, 12]: > 390000 M⁻¹ s⁻¹
- kinact/KI [4, 13]: 450 M⁻¹ s⁻¹
SMILES: O=C(O)c1ccc(NC(=S)Nc2ccc3c(Cl)c(OCCBr)oc(=O)c3c2)cc1 [7-(p-carboxyphenyl)thiocarbamoylamino-4-chloro-3-(2-bromoethoxy)isocoumarin]

- kinact/KI [1, 5]: 1700 M⁻¹ s⁻¹
SMILES: CCNC(=O)Nc1ccc2c(Cl)c(OC)oc(=O)c2c1 [7-EtNHCONH-4-chloro-3-methoxyisocoumarin, 7-ethylcarbamoylamino-4-chloro-3-methoxyisocoumarin]

- kinact/KI [1, 5]: 2000 M⁻¹ s⁻¹
- kinact/KI [2, 6]: 47000 M⁻¹ s⁻¹
SMILES: CCOC(=O)Nc1ccc2c(Cl)c(OC)oc(=O)c2c1 [7-EtOCONH-4-chloro-3-methoxyisocoumarin, 7-ethoxycarbonylamino-4-chloro-3-methoxyisocoumarin]

- kinact/KI [1, 5]: 20 M⁻¹ s⁻¹
- kinact/KI [2, 6]: 10000 M⁻¹ s⁻¹
SMILES: COc1oc(=O)c2cc(NC(=O)OCC3c4ccccc4-c4ccccc43)ccc2c1Cl [7-Fmoc-NH-4-chloro-3-methoxyisocoumarin, 7-(9-fluorenylmethoxycarbonyl)amino-4-chloro-3-methoxyisocoumarin]

- kinact/KI [1, 5]: 2100 M⁻¹ s⁻¹
SMILES: COc1oc(=O)c2cc(NC(N)=O)ccc2c1Cl [7-H2 NCONH-4-chloro-3-methoxyisocoumarin, 7-carbamoylamino-4-chloro-3-methoxyisocoumarin]

SMILES: COc1oc(=O)c2cc(N=C=O)ccc2c1Cl [7-NCO-4-chloro-3-methoxyisocoumarin, 7-isocyanato-4-chloro-3-methoxyisocoumarin]
- kinact/KI ([1]; pH 7.5, read-out: kobs/[I]): 650 M⁻¹ s⁻¹
- kinact/KI ([2]; pH 7.5, read-out: kobs/[I]): 9200 M⁻¹ s⁻¹

- kinact/KI [1, 5]: 7300 M⁻¹ s⁻¹
- kinact/KI [2, 6]: 49000 M⁻¹ s⁻¹
SMILES: COc1oc(=O)c2cc(NC(=O)Nc3ccccc3)ccc2c1Cl [7-PhNHCONH-4-chloro-3-methoxyisocoumarin, 7-phenylcarbamoylamino-4-chloro-3-methoxyisocoumarin]

SMILES: COc1oc(=O)c2cc(NC(=O)Oc3ccccc3)ccc2c1Cl [7-PhOCONH-4-chloro-3-methoxyisocoumarin, 7-phenoxycarbonylamino-4-chloro-3-methoxyisocoumarin]
- kinact/KI ([1]; pH 7.5, read-out: kobs/[I]): 850 M⁻¹ s⁻¹
- kinact/KI ([2]; pH 7.5, read-out: kobs/[I]): 13000 M⁻¹ s⁻¹

- kinact/KI [2, 10]: > 152000 M⁻¹ s⁻¹
- kinact/KI [4, 11]: 28 M⁻¹ s⁻¹
SMILES: CCCOc1oc(=O)c2cc(NC(=O)CSC)ccc2c1Cl [7-[(2-thiomethyl)acetyl]amino-4-chloro-3-propyloxyisocoumarin]

- kinact/KI [1, 5]: 260 M⁻¹ s⁻¹
- kinact/KI [2, 6]: 71000 M⁻¹ s⁻¹
SMILES: COc1oc(=O)c2cc(NC(=O)OCc3ccccc3)ccc2c1Cl [7-benzyloxycarbonylamino-4-chloro-3-methoxyisocoumarin]

- kinact/KI [2, 10]: > 131000 M⁻¹ s⁻¹
SMILES: CCCOc1oc(=O)c2cc(NC(=S)NCc3ccccc3)ccc2c1Cl [7-benzylthiocarbamoylamino-4-chloro-3-propyloxyisocoumarin]

- kinact/KI [3, 7]: 600 M⁻¹ s⁻¹
- kinact/KI ([2]; pH 7.5, Table XVI, biphasic plot, read-out: kobs/[I] (biphasic, first value)): 35600 M⁻¹ s⁻¹
- kinact/KI ([2]; pH 7.5, Table XVI, biphasic plot, read-out: kobs/[I] (biphasic, second value)): 9870 M⁻¹ s⁻¹
SMILES: O=C(CCc1ccccc1)Nc1ccc2c(Cl)c(OCCCBr)oc(=O)c2c1 [7-dihydrocinnamoylamino-4-chloro-3-(3-bromopropoxy)isocoumarin]

- kinact/KI [1, 5]: 3500 M⁻¹ s⁻¹
SMILES: CCOC(=O)Nc1ccc2c(Cl)c(OCC)oc(=O)c2c1 [7-ethoxycarbonylamino-4-chloro-3-ethoxyisocoumarin]

- kinact/KI [1, 5]: 4200 M⁻¹ s⁻¹
SMILES: CCNC(=S)Nc1ccc2c(Cl)c(OCC)oc(=O)c2c1 [7-ethylthiocarbamoylamino-4-chloro-3-ethoxyisocoumarin]

SMILES: COc1oc(=O)c2cc(NC(=O)C(F)(F)C(F)(F)C(F)(F)F)ccc2c1Cl [7-heptafluorobutyroylamino-4-chloro-3-methoxyisocoumarin]
- kinact/KI ([1]; pH 7.5, read-out: kobs/[I]): 1100 M⁻¹ s⁻¹
- kinact/KI ([2]; pH 7.5, read-out: kobs/[I]): 47000 M⁻¹ s⁻¹

- kinact/KI [1, 5]: 2300 M⁻¹ s⁻¹
- kinact/KI [2, 6]: 9000 M⁻¹ s⁻¹
SMILES: COc1oc(=O)c2cc(NC(=O)NC(C)C)ccc2c1Cl [7-isopropylcarbamoylamino-4-chloro-3-methoxyisocoumarin]

- kinact/KI [1, 5]: 2800 M⁻¹ s⁻¹
- kinact/KI [2, 6]: 54000 M⁻¹ s⁻¹
SMILES: COC(=O)CCCC(=O)Nc1ccc2c(Cl)c(OC)oc(=O)c2c1 [7-methoxyglutarylamino-4-chloro-3-methoxyisocoumarin]

- kinact/KI [1, 5]: 2200 M⁻¹ s⁻¹
- kinact/KI [2, 6]: 43000 M⁻¹ s⁻¹
SMILES: COC(=O)CCC(=O)Nc1ccc2c(Cl)c(OC)oc(=O)c2c1 [7-methoxysuccinylamino-4-chloro-3-methoxyisocoumarin]

- kinact/KI [1, 5]: 1300 M⁻¹ s⁻¹
- kinact/KI [2, 6]: 9460 M⁻¹ s⁻¹
SMILES: CNC(=O)Nc1ccc2c(Cl)c(OC)oc(=O)c2c1 [7-methylcarbamoylamino-4-chloro-3-methoxyisocoumarin]

- kinact/KI [3, 7]: 12 M⁻¹ s⁻¹
- kinact/KI [1, 8]: 36 M⁻¹ s⁻¹
- kinact/KI [2, 12]: 1.2e+06 M⁻¹ s⁻¹
SMILES: O=C(Nc1ccccc1)Nc1ccc2c(Cl)c(OCCBr)oc(=O)c2c1 [7-phenylcarbamoylamino-4-chloro-3-(2-bromoethoxy)isocoumarin]

- kinact/KI ([3]; pH 7.5, Table XII, 2.5% Me2SO, 25° C, [I] 3.4-70 μM): 6100 M⁻¹ s⁻¹
- kinact/KI ([1]; pH 7.5, Table XII, 2.5% Me2SO, 25° C, [I] 34-56 μM, read-out: kobs/[I]): 520 M⁻¹ s⁻¹
- kinact/KI [2, 10]: 143000 M⁻¹ s⁻¹
SMILES: CCCOc1oc(=O)c2cc(NC(=O)Nc3ccccc3)ccc2c1Cl [7-phenylcarbamoylamino-4-chloro-3-propyloxyisocoumarin]

- kinact/KI [1, 5]: 12000 M⁻¹ s⁻¹
SMILES: CCOc1oc(=O)c2cc(NC(=S)Nc3ccccc3)ccc2c1Cl [7-phenylthiocarbamoylamino-4-chloro-3-ethoxyisocoumarin]

- kinact/KI [2, 10]: > 166000 M⁻¹ s⁻¹
SMILES: CCCOc1oc(=O)c2cc(NC(=S)Nc3ccccc3)ccc2c1Cl [7-phenylthiocarbamoylamino-4-chloro-3-propyloxyisocoumarin]
